Article PMC10827914 (Cellular and Molecular Life Sciences: CMLS, 2024)
Blank lines part the entries; values can stand above or below the molecule they belong to. Where a SMILES comes first, the peptide text is derived from it. Bridges are numbered along the chain shown (N, C = ends). Where no end group is shown, it is not given here.

Key:
[1] = target: T1, recombinant human CD13 (rCD13) (Homo sapiens, UniProt P15144); test: rCD13 enzyme inhibition assay, L-alanine-p-nitroanilide substrate; assay type: biochemical; conditions: for IC50: rCD13 0.2 μg/mL, L-alanine-p-nitroanilide 0.5 mM, 60 mM potassium phosphate buffer pH 7.4, 30 min, 37 °C, absorbance, mean ± SEM of n independent experiments, read-out: IC50: peptide concentration that inhibits 50% of rCD13 enzymatic activity
T1 construct: consisting of the CD13 extracellular domain expressed in HEK-293 cells; His-tag; purchased Sino Biological 10051-H08H; host or cells: HEK-293 cells
Protocol: (§1) Recombinant CD13 (rCD13) enzyme activity and inhibition assays were performed as described previously using L-alanine-p-nitroanilide or L-alanine 7-amido-4-methylcoumarin as substrates in 60 mM Tris–HCl, pH 7.4, or 60 mM potassium phosphate buffer, pH 7.4. Mixtures containing peptides at various concentrations, rCD13 (0.2 µg/mL), and L-alanine-p-nitroanilide substrate (0.5 mM) in 60 mM potassium phosphate buffer, pH 7.4 (total volume, 0.1 ml) were prepared and left to react for 30 min at 37 °C. The products were then analyzed using a plate reader (iMark Microplate Absorbance Reader; Bio-Rad). Alternatively, the assay was performed using 0.1 mM L-alanine 7-amido-4-methylcoumarin in 60 mM Tris–HCl, pH 7.4, as a substrate. Fluorescence intensity of methylcoumarin was measured on an Infinite 200 PRO plate reader (Tecan) using the following settings: excitation wavelength: 341 nm; emission wavelength: 441 nm; excitation bandwidth: 9; emission bandwidth: 20 nm; gain: 109 manual; number of flashes: 25; integration time: 20 µs; lag time: 0 µs; settle time: 0 ms.
(§2) The IC50 of each inhibitor was calculated by non-linear regression analysis of inhibition data using GraphPad Prism Software (GraphPad Software, Version 9.00, San Diego, CA). Steady-state enzyme kinetic analyses were performed using various concentrations of L-alanine-p-nitroanilide (0–1.5 mM) and VGCARRYCS peptide (0–900 nM). The initial velocities (Vo) were calculated from the slopes of the first 5 min of reaction. The enzyme inhibitory constant (Ki) was calculated using the competitive enzyme inhibition model in GraphPad Prism Software.
A) VGCGRRYCSN and CSGIGSSGGC (control) peptides, at various concentrations, were mixed with rCD13 (0.2 µg/mL), L-alanine-p-nitroanilide substrate (0.5 mM), in 60 mM potassium phosphate buffer, pH 7.4. The mixtures were left to react for 30 min at 37° C; then the absorbance at 405 nm of each mixture was measured using an ELISA plate reader (Bio-Rad). The IC50 of each inhibitor was calculated by non-linear regression analysis of inhibition data using the GraphPad Prism Software (GraphPad Software, Version 9.00, San Diego, CA). The result of one experiment performed in duplicate is shown (mean ± SEM).

[2] = target: T1, recombinant human CD13 (rCD13); test: rCD13 enzyme inhibition assay, L-alanine 7-amido-4-methylcoumarin substrate; assay type: biochemical; conditions: 0.1 mM L-alanine 7-amido-4-methylcoumarin, 60 mM Tris-HCl pH 7.4, fluorescence; mean ± SEM of n independent experiments; read-out: IC50: peptide concentration that inhibits 50% of rCD13 enzymatic activity
Protocol: as §1, §2
Fig. 2 G4 recognizes soluble forms of CD13, with higher affinity and selectivity than bestatin, and the membrane forms expressed on the surface of HUVEC cells. A Inhibitory effects of G4 and bestatin on the enzymatic activities of different aminopeptidases (rCD13, APA, and APB). Various amounts of G4 or bestatin were incubated with rCD13 (0.2 µg/mL in 60 mM Tris–HCl pH 7.4), APA (0.2 µg/mL in 60 mM Tris–HCl pH 7.4, 50 mM calcium chloride, 200 mM sodium chloride) or APB (0.2 µg/mL in 60 mM Tris–HCl pH 7.4, 100 mM potassium chloride) and the corresponding substrates at 0.1 mM (L-alanine-7-amido-4-methylcoumarin for rCD13, L-glutamic acid γ-(7-amido-4-methylcoumarin) for APA, and L-arginine-7-amido-4-methylcoumarin for APB). The mixtures were incubated for 30 min at 37 °C, and the cleavage of each substrate was monitored by measuring the fluorescence of methylcoumarin (λex 341 nm; λem 441 nm) using an Infinite 200 PRO plate reader (Tecan). Three independent experiments were performed for each enzyme. The results of one representative experiment for each enzyme are shown (mean ± SEM, duplicates). B Inhibitory effects of G4 and bestatin on soluble CD13 immunocaptured from human serum (sCD13) using microtiter plates coated with anti-CD13 mAb WM15. The microtiter plate was filled with a solution of mAb WM15 (5 μg/ml in DPBS) and incubated overnight at 4 °C. The plate was then washed with DPBS, blocked with 3% bovine serum albumin (BSA) in DPBS, and filled with human serum containing soluble CD13 (diluted 1:2 with DPBS containing 2% BSA). After washing with DPBS, mixtures of G4 or bestatin (0–100 µM in 60 mM Tris–HCl, pH 7.4) and L-alanine p-nitroanilide hydrochloride substrate (4.5 mM in 60 mM Tris–HCl, pH 7.4) were added and left to incubate at 37 °C for 2 h. Substrate cleavage by sCD13 dissociated from mAb WM15 was then monitored by measuring the absorbance at 405 nm in each well using a plate reader (Bio-Rad). The results of one experiment performed in triplicate are shown (mean ± SEM). C Effect of G4 on the binding of the anti-CD13 mAb WM15 to HUVEC. HUVEC were seeded at a density of 2 × 10^5 cells in 100 µL DPBS supplemented with 5% normal human serum (NHS) and incubated with a mixture of G4 peptide (0, 0.1, 1, and 10 µM) and mAb WM15 (0 or 0.13 nM) as indicated. […]

[3] = target: His-tagged recombinant human CD13 (rCD13) (human) (UniProt P15144)
Sequence of His-tagged recombinant human CD13 (rCD13) (human) (P15144 33-967): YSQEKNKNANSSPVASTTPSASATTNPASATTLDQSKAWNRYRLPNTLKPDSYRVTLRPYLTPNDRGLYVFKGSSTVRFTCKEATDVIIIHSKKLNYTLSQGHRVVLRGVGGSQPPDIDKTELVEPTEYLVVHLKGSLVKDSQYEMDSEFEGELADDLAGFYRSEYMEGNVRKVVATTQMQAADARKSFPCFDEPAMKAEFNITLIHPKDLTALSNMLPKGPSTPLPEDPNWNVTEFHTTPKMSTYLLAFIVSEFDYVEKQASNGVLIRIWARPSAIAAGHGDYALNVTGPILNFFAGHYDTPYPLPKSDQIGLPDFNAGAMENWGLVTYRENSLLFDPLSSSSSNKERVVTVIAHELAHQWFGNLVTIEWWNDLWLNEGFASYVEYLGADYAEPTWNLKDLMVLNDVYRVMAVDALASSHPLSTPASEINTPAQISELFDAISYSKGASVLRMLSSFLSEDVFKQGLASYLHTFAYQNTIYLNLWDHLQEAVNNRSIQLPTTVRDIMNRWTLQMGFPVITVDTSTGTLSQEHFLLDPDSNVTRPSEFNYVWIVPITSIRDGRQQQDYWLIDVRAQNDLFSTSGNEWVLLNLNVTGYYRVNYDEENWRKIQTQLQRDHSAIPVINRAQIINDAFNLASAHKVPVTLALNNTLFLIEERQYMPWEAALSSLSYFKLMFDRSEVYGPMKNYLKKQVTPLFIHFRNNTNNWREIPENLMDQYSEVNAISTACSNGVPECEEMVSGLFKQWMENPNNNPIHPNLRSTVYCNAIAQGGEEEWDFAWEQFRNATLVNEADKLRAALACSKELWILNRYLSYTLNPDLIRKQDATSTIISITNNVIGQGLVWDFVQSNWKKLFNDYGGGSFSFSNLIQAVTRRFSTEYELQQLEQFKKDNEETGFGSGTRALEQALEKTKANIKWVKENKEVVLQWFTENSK

T1 sequence (P15144 33-967 limits assumed): as the sequence (P15144 33-967) above

IC50 [1]: 12.1 ± 8.4 µM
Molecule: CC(C)[C@H](N)C(=O)NCC(=O)N[C@H]1CSSC[C@@H](C(=O)N[C@@H](CO)C(=O)N[C@@H](CC(N)=O)C(=O)O)NC(=O)[C@H](Cc2ccc(O)cc2)NC(=O)[C@H](CCCNC(=N)N)NC(=O)[C@H](C)NC(=O)CNC1=O [VGCGARYCSN] (H-VGCGARYCSN-OH; disulfide 3-8)

IC50 [2]: > 1000 µM
Molecule: CC(=O)N[C@H](C(=O)NCC(=O)N[C@H]1CSSC[C@@H](C(=O)N[C@@H](CO)C(=O)N[C@@H](CC(N)=O)C(=O)O)NC(=O)[C@H](Cc2ccc(O)cc2)NC(=O)[C@H](CCCNC(=N)N)NC(=O)[C@H](CCCNC(=N)N)NC(=O)[C@H](C)NC1=O)C(C)C [ac-VGCARRYCSN] (Ac-VGCARRYCSN-OH; disulfide 3-8; C-terminus assumed)

Inhibition of rCD13 enzymatic activity (in words) ([1]; negative control peptide, rCD13 0.2 µg/ml, L-alanine-p-nitroanilide, Supplementary Fig. S2A): no inhibition
Molecule: CSGIGSGGC [negative control peptide, reference compound]

IC50 [1]: 2.01 ± 1.1 µM
Molecule: CC(C)[C@H](N)C(=O)NCC(=O)N[C@H]1CSSC[C@@H](C(=O)N[C@@H](CO)C(=O)N[C@@H](CC(N)=O)C(=O)O)NC(=O)[C@H](Cc2ccc(O)cc2)NC(=O)[C@H](CCCNC(=N)N)NC(=O)[C@H](CCCNC(=N)N)NC(=O)CNC1=O [VGCGRRYCSN] (H-VGCGRRYCSN-OH; disulfide 3-8)

IC50 [1]: 4.5 ± 5.1 µM
Molecule: CC(C)[C@H](N)C(=O)N[C@@H](C)C(=O)N[C@H]1CSSC[C@@H](C(=O)N[C@@H](CO)C(=O)N[C@@H](CC(N)=O)C(=O)O)NC(=O)[C@H](Cc2ccc(O)cc2)NC(=O)[C@H](CCCNC(=N)N)NC(=O)[C@H](CCCNC(=N)N)NC(=O)CNC1=O [VACGRRYCSN] (H-VACGRRYCSN-OH; disulfide 3-8)

IC50 [1]: 17.6 ± 4.6 µM
Molecule: CC(C)[C@H](N)C(=O)NCC(=O)N[C@H]1CSSC[C@@H](C(=O)N[C@@H](CO)C(=O)N[C@@H](CC(N)=O)C(=O)O)NC(=O)[C@H](Cc2ccc(O)cc2)NC(=O)[C@H](C)NC(=O)[C@H](CCCNC(=N)N)NC(=O)CNC1=O [VGCGRAYCSN] (H-VGCGRAYCSN-OH; disulfide 3-8)

IC50 [2]: 69.5 ± 0.1 µM
Molecule: C[C@@H]1NC(=O)[C@@H](NC(=O)CN)CSSC[C@@H](C(=O)N[C@@H](CO)C(=O)O)NC(=O)[C@H](Cc2ccc(O)cc2)NC(=O)[C@H](CCCNC(=N)N)NC(=O)[C@H](CCCNC(=N)N)NC1=O [GCARRYCS] (H-GCARRYCS-OH; disulfide 2-7)

IC50 [2]: 0.23 ± 0.01 µM
Molecule: CC(C)[C@H](N)C(=O)NCC(=O)N[C@H]1CSSC[C@@H](C(=O)O)NC(=O)[C@H](Cc2ccc(O)cc2)NC(=O)[C@H](CCCNC(=N)N)NC(=O)[C@H](CCCNC(=N)N)NC(=O)[C@H](C)NC1=O [VGCARRYC] (H-VGCARRYC-OH; disulfide 3-8)

IC50 [1]: 8.9 ± 5.5 µM
Molecule: CC(C)[C@H](N)C(=O)NCC(=O)N[C@H]1CSSC[C@@H](C(=O)N[C@@H](CO)C(=O)N[C@@H](CC(N)=O)C(=O)O)NC(=O)[C@H](C)NC(=O)[C@H](CCCNC(=N)N)NC(=O)[C@H](CCCNC(=N)N)NC(=O)CNC1=O [VGCGRRACSN] (H-VGCGRRACSN-OH; disulfide 3-8)

IC50 [1]: 0.2 ± 0.06 µM
IC50 [2]: 0.19 ± 0.01 µM
Molecule: CC(C)[C@H](N)C(=O)NCC(=O)N[C@H]1CSSC[C@@H](C(=O)N[C@@H](CO)C(=O)N[C@@H](CC(N)=O)C(=O)O)NC(=O)[C@H](Cc2ccc(O)cc2)NC(=O)[C@H](CCCNC(=N)N)NC(=O)[C@H](CCCNC(=N)N)NC(=O)[C@H](C)NC1=O [VGCARRYCSN] (H-VGCARRYCSN-OH; disulfide 3-8)

IC50 [1]: 6.2 ± 4.8 µM
Molecule: VGAGRRYASN [VGAGRRYASN]

IC50 [2]: 40.1 ± 1.9 µM
Molecule: C[C@@H]1NC(=O)[C@@H](NC(=O)CN)CSSC[C@@H](C(=O)N[C@@H](CO)C(=O)N[C@@H](CC(N)=O)C(=O)O)NC(=O)[C@H](Cc2ccc(O)cc2)NC(=O)[C@H](CCCNC(=N)N)NC(=O)[C@H](CCCNC(=N)N)NC1=O [GCARRYCSN] (H-GCARRYCSN-OH; disulfide 2-7)

IC50 [1]: 11.4 ± 4.5 µM
Molecule: C[C@H](N)C(=O)NCC(=O)N[C@H]1CSSC[C@@H](C(=O)N[C@@H](CO)C(=O)N[C@@H](CC(N)=O)C(=O)O)NC(=O)[C@H](Cc2ccc(O)cc2)NC(=O)[C@H](CCCNC(=N)N)NC(=O)[C@H](CCCNC(=N)N)NC(=O)CNC1=O [AGCGRRYCSN] (H-AGCGRRYCSN-OH; disulfide 3-8)

inhibition of rCD13 enzymatic activity, against … (fold decrease) [3]: 3
Molecule: VGCARRYC [… with deletion of Ser-9 and Asn-10]

IC50 of inhibition of rCD13 enzymatic activity [3]: 51 µM
Molecule: CARRYC (disulfide 1-6 (inferred)) [small disulfide-bridged peptide CARRYC]

inhibition of rCD13 enzymatic activity, against … (fold loss of activity) [3]: 270
Molecule: CARRYCSN [… with deletion of Val-1 and Gly-2]

inhibition of rCD13 enzymatic activity, against … (fold loss of activity) [3]: 200
Molecule: GCARRYCSN [… with deletion of Val-1]
